ChEMBL document CHEMBL1201862, “PubChem BioAssay data set” (2004)
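Briefly, cells in 96-well plates were exposed to five compound concentrations for 48 h, and endpoints were estimated by linear interpolation. Here, GI50 denotes the concentration required for 50% inhibition of growth.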 Calls of active or inactive are those of the source. Rule as the data show it: active = GI50 up to about 1.1 µM and inactive = higher.

Key:
Test in all cases: NCI-60 cell line screen, 48 h
786-0 = tested on: 786-0
A498 = tested on: A498
A549 = tested on: A549
ACHN = tested on: ACHN
BT-549 = tested on: BT-549
CAKI-1 = tested on: CAKI-1
CCRF-CEM = tested on: CCRF-CEM
COLO 205 = tested on: COLO 205
DU-145 = tested on: DU-145
EKVX = tested on: EKVX
HCC 2998 = tested on: HCC 2998
HCT-116 = tested on: HCT-116
HCT-15 = tested on: HCT-15
HL-60 = tested on: HL-60
HOP-62 = tested on: HOP-62
HOP-92 = tested on: HOP-92
HT-29 = tested on: HT-29
Hs-578T = tested on: Hs-578T
IGROV-1 = tested on: IGROV-1
K562 = tested on: K562
KM12 = tested on: KM12
LOX IMVI = tested on: LOX IMVI
M14 = tested on: M14
MCF7 = tested on: MCF7
MDA-MB-231 = tested on: MDA-MB-231
MDA-MB-435 = tested on: MDA-MB-435
MOLT-4 = tested on: MOLT-4
Malme-3M = tested on: Malme-3M
NCI-H226 = tested on: NCI-H226
NCI-H23 = tested on: NCI-H23
NCI-H460 = tested on: NCI-H460
NCI-H522 = tested on: NCI-H522
NCI/ADR-RES = tested on: NCI/ADR-RES
OVCAR-3 = tested on: OVCAR-3
OVCAR-4 = tested on: OVCAR-4
OVCAR-5 = tested on: OVCAR-5
OVCAR-8 = tested on: OVCAR-8
PC-3 = tested on: PC-3
RPMI-8226 = tested on: RPMI-8226
RXF 393 = tested on: RXF 393
SF-268 = tested on: SF-268
SF-295 = tested on: SF-295
SF-539 = tested on: SF-539
SK-MEL-28 = tested on: SK-MEL-28
SK-MEL-5 = tested on: SK-MEL-5
SK-OV-3 = tested on: SK-OV-3
SN12C = tested on: SN12C
SNB-19 = tested on: SNB-19
SNB-75 = tested on: SNB-75
SR = tested on: SR
SW-620 = tested on: SW-620
T47D = tested on: T47D
TK-10 = tested on: TK-10
U-251 = tested on: U-251
UACC-257 = tested on: UACC-257
UACC-62 = tested on: UACC-62
UO-31 = tested on: UO-31
MDA-N = tested on: MDA-N
SK-MEL-2 = tested on: SK-MEL-2

## CCOc1ccc(NCC2CC/C(=C\c3ccc(O)cc3)C2=O)cc1 (configuration not stated)
786-0
  GI50: 6.65 µM (inactive)
A498
  GI50: 18.2 µM (inactive)
A549
  GI50: 21.2 µM (inactive)
ACHN
  GI50: 17 µM (inactive)
BT-549
  GI50: 12.9 µM (inactive)
CAKI-1
  GI50: 17.1 µM (inactive)
CCRF-CEM
  GI50: 5.87 µM (inactive)
COLO 205
  GI50: 13.6 µM (inactive)
DU-145
  GI50: 25.7 µM (inactive)
EKVX
  GI50: 20.5 µM (inactive)
HCC 2998
  GI50: 18.1 µM (inactive)
HCT-116
  GI50: 9.64 µM (inactive)
HCT-15
  GI50: 6.9 µM
HL-60
  GI50: 2.22 µM (inactive)
HOP-62
  GI50: 37.8 µM (inactive)
HOP-92
  GI50: 15.2 µM (inactive)
HT-29
  GI50: 15.6 µM (inactive)
Hs-578T
  GI50: 28.8 µM (inactive)
IGROV-1
  GI50: 18.9 µM (inactive)
K562
  GI50: 3.89 µM (inactive)
KM12
  GI50: 12.2 µM (inactive)
LOX IMVI
  GI50: 12.2 µM (inactive)
M14
  GI50: 18.1 µM (inactive)
MCF7
  GI50: 3.61 µM (inactive)
MDA-MB-231
  GI50: 19.2 µM (inactive)
MDA-MB-435
  GI50: 18.4 µM (inactive)
MOLT-4
  GI50: 4.17 µM (inactive)
Malme-3M
  GI50: 14.9 µM (inactive)
NCI-H226
  GI50: 38.2 µM (inactive)
NCI-H23
  GI50: 23.3 µM (inactive)
NCI-H460
  GI50: 23.2 µM (inactive)
NCI-H522
  GI50: 6.14 µM (inactive)
NCI/ADR-RES
  GI50: 18 µM (inactive)
OVCAR-3
  GI50: 12.2 µM (inactive)
OVCAR-4
  GI50: 17.2 µM (inactive)
OVCAR-5
  GI50: 15.6 µM (inactive)
OVCAR-8
  GI50: 17.9 µM (inactive)
PC-3
  GI50: 16.9 µM (inactive)
RPMI-8226
  GI50: 4.02 µM (inactive)
RXF 393
  GI50: 18.7 µM (inactive)
SF-268
  GI50: 15.8 µM (inactive)
SF-295
  GI50: 24.5 µM (inactive)
SF-539
  GI50: 19.1 µM (inactive)
SK-MEL-28
  GI50: 15.5 µM (inactive)
SK-MEL-5
  GI50: 19.1 µM (inactive)
SK-OV-3
  GI50: > 44.7 µM (inactive)
SN12C
  GI50: 18.5 µM (inactive)
SNB-19
  GI50: 25.5 µM (inactive)
SNB-75
  GI50: 14.5 µM (inactive)
SR
  GI50: 2.19 µM (inactive)
SW-620
  GI50: 3.03 µM (inactive)
T47D
  GI50: 19 µM (inactive)
TK-10
  GI50: 12.7 µM (inactive)
U-251
  GI50: 16.7 µM (inactive)
UACC-257
  GI50: 16.9 µM (inactive)
UACC-62
  GI50: 19.7 µM (inactive)
UO-31
  GI50: 19.4 µM (inactive)

## N#CC12CC(C=O)=C(N)C1(C#N)CC(C=O)=C2N (configuration not stated)
786-0
  GI50: > 100 µM (inactive)
A498
  GI50: > 100 µM (inactive)
A549
  GI50: > 100 µM (inactive)
ACHN
  GI50: > 100 µM (inactive)
CAKI-1
  GI50: > 100 µM (inactive)
CCRF-CEM
  GI50: 36.7 µM (inactive)
COLO 205
  GI50: > 100 µM (inactive)
DU-145
  GI50: 46 µM (inactive)
EKVX
  GI50: > 100 µM (inactive)
HCC 2998
  GI50: 26.5 µM (inactive)
HCT-116
  GI50: 47.3 µM (inactive)
HCT-15
  GI50: 8.34 µM
HL-60
  GI50: 23.7 µM (inactive)
HOP-62
  GI50: 65.9 µM (inactive)
HOP-92
  GI50: 32.5 µM (inactive)
HT-29
  GI50: > 100 µM (inactive)
Hs-578T
  GI50: 34 µM (inactive)
IGROV-1
  GI50: 71.9 µM (inactive)
K562
  GI50: 45.9 µM (inactive)
KM12
  GI50: 88.9 µM (inactive)
LOX IMVI
  GI50: 34.4 µM (inactive)
M14
  GI50: 35.9 µM (inactive)
MCF7
  GI50: 58.9 µM (inactive)
MDA-MB-231
  GI50: > 100 µM (inactive)
MDA-MB-435
  GI50: 36.1 µM (inactive)
MDA-N
  GI50: 32.4 µM (inactive)
MOLT-4
  GI50: 50.8 µM (inactive)
Malme-3M
  GI50: 50.8 µM (inactive)
NCI-H226
  GI50: > 100 µM (inactive)
NCI-H23
  GI50: 28.3 µM (inactive)
NCI-H522
  GI50: > 100 µM (inactive)
NCI/ADR-RES
  GI50: > 100 µM (inactive)
OVCAR-5
  GI50: > 100 µM (inactive)
OVCAR-8
  GI50: 63.7 µM (inactive)
PC-3
  GI50: 72.3 µM (inactive)
RPMI-8226
  GI50: 52.6 µM (inactive)
RXF 393
  GI50: 41.9 µM (inactive)
SF-268
  GI50: 31.1 µM (inactive)
SF-295
  GI50: > 100 µM (inactive)
SF-539
  GI50: 81.8 µM (inactive)
SK-MEL-28
  GI50: 38.5 µM (inactive)
SK-MEL-2
  GI50: 24.1 µM (inactive)
SK-MEL-5
  GI50: 20.8 µM (inactive)
SK-OV-3
  GI50: > 100 µM (inactive)
SN12C
  GI50: 74.6 µM (inactive)
SNB-19
  GI50: 52.8 µM (inactive)
SNB-75
  GI50: 44.4 µM (inactive)
SR
  GI50: 37.7 µM (inactive)
SW-620
  GI50: 49.7 µM (inactive)
T47D
  GI50: 37.8 µM (inactive)
TK-10
  GI50: > 100 µM (inactive)
U-251
  GI50: 55.3 µM (inactive)
UACC-257
  GI50: 32.3 µM (inactive)
UACC-62
  GI50: 36.2 µM (inactive)
UO-31
  GI50: 70.1 µM (inactive)
